Reference: PubChem BioAssay AID2060505 (Molecular Pharmacology Branch, DTP, NCI, 2025)

System: 633275-114-R-J1-PDC complex spheroids, viability
Assay: Anticancer human tumor 633275-114-R-J1-PDC patient-derived endometrial adenocarcinoma cell line growth inhibition [GQUAD]
Details: for IC50: curve of first compound; for viability, T/C: stronger effect = lower value
Method in brief: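 Multi-cell-type spheroids of tumor cells with HUVEC and mesenchymal stem cells, treated with drug combinations. Concentrations descend in half-log steps from near clinical Cmax, or from 10 microM where Cmax is unknown; viability read-out.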

[1] = second compound 0.0316 µM, first compound 0.0316 µM
[2] = second compound 0.0316 µM, first compound 0.316 µM
[3] = second compound 0.1 µM, first compound 0.0316 µM
[4] = second compound 0.1 µM, first compound 0.316 µM
[5] = second compound 0.316 µM, first compound 0.0316 µM
[6] = second compound 0.316 µM, first compound 0.316 µM
[7] = second compound 1 µM, first compound 0.0316 µM
[8] = second compound 1 µM, first compound 0.316 µM
[9] = second compound 3.16 µM, first compound 0.0316 µM
[10] = second compound 3.16 µM, first compound 0.316 µM
[11] = second compound 10 µM, first compound 0.0316 µM
[12] = second compound 10 µM, first compound 0.316 µM
[13] = second compound 0.0316 µM, first compound 0.000999 µM
[14] = second compound 0.0316 µM, first compound 0.00316 µM
[15] = second compound 0.0316 µM, first compound 0.00999 µM
[16] = second compound 0.0316 µM, first compound 0.0999 µM
[17] = second compound 0.1 µM, first compound 0.000999 µM
[18] = second compound 0.1 µM, first compound 0.00316 µM
[19] = second compound 0.1 µM, first compound 0.00999 µM
[20] = second compound 0.1 µM, first compound 0.0999 µM
[21] = second compound 0.316 µM, first compound 0.000999 µM
[22] = second compound 0.316 µM, first compound 0.00316 µM
[23] = second compound 0.316 µM, first compound 0.00999 µM
[24] = second compound 0.316 µM, first compound 0.0999 µM
[25] = second compound 1 µM, first compound 0.000999 µM
[26] = second compound 1 µM, first compound 0.00316 µM
[27] = second compound 1 µM, first compound 0.00999 µM
[28] = second compound 1 µM, first compound 0.0999 µM
[29] = second compound 3.16 µM, first compound 0.000999 µM
[30] = second compound 3.16 µM, first compound 0.00316 µM
[31] = second compound 3.16 µM, first compound 0.00999 µM
[32] = second compound 3.16 µM, first compound 0.0999 µM
[33] = second compound 10 µM, first compound 0.000999 µM
[34] = second compound 10 µM, first compound 0.00316 µM
[35] = second compound 10 µM, first compound 0.00999 µM
[36] = second compound 10 µM, first compound 0.0999 µM
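Further: spheroids exposed to the agents for seven days.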
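Wherever viability, T/C is given: percent of DMSO vehicle control viability which is 100%.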

CC(=O)O[C@H]1C(=O)[C@@]2(C)[C@H]([C@H](OC(=O)c3ccccc3)[C@]3(O)C[C@H](OC(=O)[C@H](O)[C@@H](NC(=O)c4ccccc4)c4ccccc4)C(C)=C1C3(C)C)[C@]1(OC(C)=O)CO[C@@H]1C[C@@H]2O + Cc1cnc(CNC(=O)c2c(=O)c3ccc(N4CCCN(C)CC4)nc3n3c2sc2ccccc23)cn1 gave an IC50 (second compound 0.0316 µM) of less than 31.6 nM, an IC50 (second compound 0.1 µM) of less than 31.6 nM and an IC50 (second compound 0.316 µM) of less than 31.6 nM. The IC50 (second compound 1 µM) was less than 31.6 nM, the IC50 (second compound 3.16 µM) was less than 31.6 nM and the IC50 (second compound 10 µM) was less than 31.6 nM. It also gave a viability, T/C [1] of 43.8%, a viability, T/C (second compound 0.0316 µM, first compound 0.1 µM) of 30.5% and a viability, T/C [2] of 27.4%. For the same molecule, the viability, T/C (second compound 0.0316 µM, first compound 1 µM) was 25.1%, the viability, T/C (second compound 0.0316 µM, first compound 3.16 µM) was 24.9% and the viability, T/C (second compound 0.0316 µM, first compound 10 µM) was 25.6%. It also gave a viability, T/C [3] of 42.3%, a viability, T/C (second compound 0.1 µM, first compound 0.1 µM) of 37.3% and a viability, T/C [4] of 32.8%. For the same molecule, the viability, T/C (second compound 0.1 µM, first compound 1 µM) was 35.2%, the viability, T/C (second compound 0.1 µM, first compound 3.16 µM) was 33.9% and the viability, T/C (second compound 0.1 µM, first compound 10 µM) was 34.1%. It also gave a viability, T/C [5] of 43.5%, a viability, T/C (second compound 0.316 µM, first compound 0.1 µM) of 39.3% and a viability, T/C [6] of 41.7%. For the same molecule, the viability, T/C (second compound 0.316 µM, first compound 1 µM) was 38.2%, the viability, T/C (second compound 0.316 µM, first compound 3.16 µM) was 35.8% and the viability, T/C (second compound 0.316 µM, first compound 10 µM) was 35.3%. For the same molecule, the viability, T/C [7] was 38.5%, the viability, T/C (second compound 1 µM, first compound 0.1 µM) was 37.4% and the viability, T/C [8] was 39.3%. The viability, T/C (second compound 1 µM, first compound 1 µM) was 43.2%, the viability, T/C (second compound 1 µM, first compound 3.16 µM) was 35.1% and the viability, T/C (second compound 1 µM, first compound 10 µM) was 36.2%. The viability, T/C [9] was 39%, the viability, T/C (second compound 3.16 µM, first compound 0.1 µM) was 35% and the viability, T/C [10] was 35.8%. The viability, T/C (second compound 3.16 µM, first compound 1 µM) was 39.7%, the viability, T/C (second compound 3.16 µM, first compound 3.16 µM) was 35.8% and the viability, T/C (second compound 3.16 µM, first compound 10 µM) was 32.6%. The viability, T/C [11] was 31.1%, the viability, T/C (second compound 10 µM, first compound 0.1 µM) was 28.7% and the viability, T/C [12] was 27.5%. The viability, T/C (second compound 10 µM, first compound 1 µM) was 31.7%, the viability, T/C (second compound 10 µM, first compound 3.16 µM) was 32.4% and the viability, T/C (second compound 10 µM, first compound 10 µM) was 30.8%.

With CC[C@@]1(O)C(=O)OCc2c1cc1n(c2=O)Cc2cc3c(CN(C)C)c(O)ccc3nc2-1 + Cc1cnc(CNC(=O)c2c(=O)c3ccc(N4CCCN(C)CC4)nc3n3c2sc2ccccc23)cn1 the IC50 (second compound 0.0316 µM) was 32.8 nM, the IC50 (second compound 0.1 µM) was 1.27 nM and the IC50 (second compound 0.316 µM) was 1.65 nM. For the same molecule, the IC50 (second compound 1 µM) was less than 0.999 nM, the IC50 (second compound 3.16 µM) was less than 0.999 nM and the IC50 (second compound 10 µM) was less than 0.999 nM. For the same molecule, the viability, T/C [13] was 63.9%, the viability, T/C [14] was 62.7% and the viability, T/C [15] was 53.8%. It also gave a viability, T/C [1] of 54.5%, a viability, T/C [16] of 38.4% and a viability, T/C [2] of 32.8%. The viability, T/C [17] was 50.7%, the viability, T/C [18] was 47.6% and the viability, T/C [19] was 47.5%. It also gave a viability, T/C [3] of 42.6%, a viability, T/C [20] of 41% and a viability, T/C [4] of 36.5%. It also gave a viability, T/C [21] of 49.7%, a viability, T/C [22] of 49.1% and a viability, T/C [23] of 48.5%. The viability, T/C [5] was 40.1%, the viability, T/C [24] was 34.7% and the viability, T/C [6] was 33.4%. For the same molecule, the viability, T/C [25] was 40%, the viability, T/C [26] was 40.6% and the viability, T/C [27] was 39.1%. It also gave a viability, T/C [7] of 40.5%, a viability, T/C [28] of 39.9% and a viability, T/C [8] of 35.2%. The viability, T/C [29] was 38.4%, the viability, T/C [30] was 37.9% and the viability, T/C [31] was 37.7%. It also gave a viability, T/C [9] of 33.1%, a viability, T/C [32] of 35.9% and a viability, T/C [10] of 29.9%. For the same molecule, the viability, T/C [33] was 31.7%, the viability, T/C [34] was 35.8% and the viability, T/C [35] was 29.8%. For the same molecule, the viability, T/C [11] was 31.9%, the viability, T/C [36] was 32.7% and the viability, T/C [12] was 28.4%.

CCc1c2c(nc3ccc(O)cc13)-c1cc3c(c(=O)n1C2)COC(=O)[C@]3(O)CC + Cc1cnc(CNC(=O)c2c(=O)c3ccc(N4CCCN(C)CC4)nc3n3c2sc2ccccc23)cn1 gave an IC50 (second compound 0.0316 µM) of 1.6 nM, an IC50 (second compound 0.1 µM) of less than 0.999 nM and an IC50 (second compound 0.316 µM) of less than 0.999 nM. It also gave an IC50 (second compound 1 µM) of less than 0.999 nM, an IC50 (second compound 3.16 µM) of less than 0.999 nM and an IC50 (second compound 10 µM) of less than 0.999 nM. For the same molecule, the viability, T/C [13] was 57.4%, the viability, T/C [14] was 38.5% and the viability, T/C [15] was 32.5%. The viability, T/C [1] was 32.5%, the viability, T/C [16] was 26.6% and the viability, T/C [2] was 24.4%. The viability, T/C [17] was 46.3%, the viability, T/C [18] was 36.2% and the viability, T/C [19] was 35.4%. For the same molecule, the viability, T/C [3] was 32.4%, the viability, T/C [20] was 27.2% and the viability, T/C [4] was 25.2%. It also gave a viability, T/C [21] of 42.9%, a viability, T/C [22] of 37.9% and a viability, T/C [23] of 33.9%. It also gave a viability, T/C [5] of 31.2%, a viability, T/C [24] of 30% and a viability, T/C [6] of 26.8%. It also gave a viability, T/C [25] of 40.4%, a viability, T/C [26] of 35.3% and a viability, T/C [27] of 35.9%. The viability, T/C [7] was 30.2%, the viability, T/C [28] was 27.8% and the viability, T/C [8] was 18.7%. The viability, T/C [29] was 34%, the viability, T/C [30] was 31.9% and the viability, T/C [31] was 28.3%. For the same molecule, the viability, T/C [9] was 27%, the viability, T/C [32] was 24.9% and the viability, T/C [10] was 13.4%. The viability, T/C [33] was 30.3%, the viability, T/C [34] was 28% and the viability, T/C [35] was 26.4%. It also gave a viability, T/C [11] of 27.8%, a viability, T/C [36] of 21.1% and a viability, T/C [12] of 0.26%.
